Laboratory results taken from patent publication US20240000872A1, “NOVEL BACTERIOPHAGE THAT LYSES ACINETOBACTER GENUS BACTERIA HAVING RESISTANCE TO ANTIBIOTICS” (priority 2020, published 2024).

Tested on: Acinetobacter baumannii strains
Experiment: Antibiotic susceptibility test (CLSI disk diffusion test method, read per CLSI 2016); for antibiotic susceptibility S/I/R: key: ‘S’ means susceptible; ‘I’ means intermediate; ‘R’ means resistant
Type: cell-based
Parameters: antibiotic susceptibility test value / susceptibility test value (number given before S/I/R) / antibiotic susceptibility value: unit not given here

Structure (SMILES): CCN1CCN(C(=O)N[C@@H](C(=O)N[C@@H]2C(=O)N3[C@@H]2SC(C)(C)[C@@H]3C(=O)O)c2ccccc2)C(=O)C1=O [Piperalillinc]
- antibiotic susceptibility S/I/R (host strain YMC14/06/R2359): R
- antibiotic susceptibility value (host strain YMC14/06/R2359): 128
- antibiotic susceptibility S/I/R (host strain YMC14/08/R1169): R
- antibiotic susceptibility value (host strain YMC14/08/R1169): 128
- antibiotic susceptibility S/I/R (host strain YMC14/08/T90): R
- antibiotic susceptibility value (host strain YMC14/08/T90): 128
- antibiotic susceptibility S/I/R (host strain YMC15/02/R436): R
- antibiotic susceptibility value (host strain YMC15/02/R436): 128
- antibiotic susceptibility S/I/R (host strain YMC15/02/T28): R
- antibiotic susceptibility value (host strain YMC15/02/T28): 128
- antibiotic susceptibility S/I/R (host strain YMC15/03/R1604): R
- antibiotic susceptibility value (host strain YMC15/03/R1604): 128
- antibiotic susceptibility S/I/R (host strain YMC15/09/R1869): R
- antibiotic susceptibility value (host strain YMC15/09/R1869): 128
- antibiotic susceptibility S/I/R (host strain YMC16/01/P11): R
- antibiotic susceptibility value (host strain YMC16/01/P11): 128
- antibiotic susceptibility S/I/R (host strain YMC16/01/R123): R
- antibiotic susceptibility value (host strain YMC16/01/R123): 128
- antibiotic susceptibility S/I/R (host strain YMC16/01/R198): R
- antibiotic susceptibility value (host strain YMC16/01/R198): 128
- antibiotic susceptibility S/I/R (host strain YMC16/01/R353): R
- antibiotic susceptibility value (host strain YMC16/01/R353): 128
- antibiotic susceptibility S/I/R (host strain YMC16/01/R380): R
- antibiotic susceptibility value (host strain YMC16/01/R380): 128
- antibiotic susceptibility S/I/R (host strain YMC16/01/R397): R
- antibiotic susceptibility value (host strain YMC16/01/R397): 128
- antibiotic susceptibility S/I/R (host strain YMC16/01/R405): R
- antibiotic susceptibility value (host strain YMC16/01/R405): 128
- antibiotic susceptibility S/I/R (host strain YMC16/03/R4461): R
- antibiotic susceptibility value (host strain YMC16/03/R4461): 128
- antibiotic susceptibility S/I/R (host strain YMC16/05/R2210): R
- antibiotic susceptibility value (host strain YMC16/05/R2210): 128
- antibiotic susceptibility S/I/R (host strain YMC16/07/R2512): R
- antibiotic susceptibility value (host strain YMC16/07/R2512): 128
- antibiotic susceptibility S/I/R (host strain YMC16/09/R2471): R
- antibiotic susceptibility value (host strain YMC16/09/R2471): 128
- antibiotic susceptibility S/I/R (host strain YMC16/10/R2537): R
- antibiotic susceptibility value (host strain YMC16/10/R2537): 128
- antibiotic susceptibility S/I/R (host strain YMC16/12/B11422): R
- antibiotic susceptibility value (host strain YMC16/12/B11422): 128
- antibiotic susceptibility S/I/R (host strain YMC16/12/B11449): R
- antibiotic susceptibility value (host strain YMC16/12/B11449): 128
- antibiotic susceptibility S/I/R (host strain YMC16/12/B13325): R
- antibiotic susceptibility value (host strain YMC16/12/B13325): 128
- antibiotic susceptibility S/I/R (host strain YMC16/12/P503): R
- antibiotic susceptibility value (host strain YMC16/12/P503): 128
- antibiotic susceptibility S/I/R (host strain YMC16/12/R4637): R
- antibiotic susceptibility value (host strain YMC16/12/R4637): 128
- antibiotic susceptibility S/I/R (host strain YMC17/01/B8053): R
- antibiotic susceptibility value (host strain YMC17/01/B8053): 128
- antibiotic susceptibility S/I/R (host strain YMC17/01/B10087): R
- antibiotic susceptibility value (host strain YMC17/01/B10087): 128
- antibiotic susceptibility S/I/R (host strain YMC17/01/B12075): R
- antibiotic susceptibility value (host strain YMC17/01/B12075): 128
- antibiotic susceptibility S/I/R (host strain YMC17/01/B13454): R
- antibiotic susceptibility value (host strain YMC17/01/B13454): 128
- antibiotic susceptibility S/I/R (host strain YMC17/01/P518): R
- antibiotic susceptibility value (host strain YMC17/01/P518): 128
- antibiotic susceptibility S/I/R (host strain YMC17/01/R2812): R
- antibiotic susceptibility value (host strain YMC17/01/R2812): 128
- antibiotic susceptibility S/I/R (host strain YMC17/02/B14): R
- antibiotic susceptibility value (host strain YMC17/02/B14): 128
- antibiotic susceptibility S/I/R (host strain YMC17/02/B87): R
- antibiotic susceptibility value (host strain YMC17/02/B87): 128
- antibiotic susceptibility S/I/R (host strain YMC17/02/B721): R
- antibiotic susceptibility value (host strain YMC17/02/B721): 128
- antibiotic susceptibility S/I/R (host strain YMC17/02/B4039): R
- antibiotic susceptibility value (host strain YMC17/02/B4039): 128
- antibiotic susceptibility S/I/R (host strain YMC17/02/B4520): R
- antibiotic susceptibility value (host strain YMC17/02/B4520): 128
- antibiotic susceptibility S/I/R (host strain YMC17/02/B4864): S
- antibiotic susceptibility value (host strain YMC17/02/B4864): 8
- antibiotic susceptibility S/I/R (host strain YMC17/02/B8414): R
- antibiotic susceptibility value (host strain YMC17/02/B8414): 128
- antibiotic susceptibility S/I/R (host strain YMC17/02/P523): R
- antibiotic susceptibility value (host strain YMC17/02/P523): 128
- antibiotic susceptibility S/I/R (host strain YMC17/02/R541): R
- antibiotic susceptibility value (host strain YMC17/02/R541): 128
- antibiotic susceptibility S/I/R (host strain YMC17/02/R2392): R
- antibiotic susceptibility value (host strain YMC17/02/R2392): 128
- antibiotic susceptibility S/I/R (host strain YMC17/03/B4730): R
- antibiotic susceptibility value (host strain YMC17/03/B4730): 128
- antibiotic susceptibility S/I/R (host strain YMC17/03/B5000): R
- antibiotic susceptibility value (host strain YMC17/03/B5000): 128
- antibiotic susceptibility S/I/R (host strain YMC17/03/P971): R
- antibiotic susceptibility value (host strain YMC17/03/P971): 128
- antibiotic susceptibility S/I/R (host strain YMC17/03/R348): R
- antibiotic susceptibility value (host strain YMC17/03/R348): 128
- antibiotic susceptibility S/I/R (host strain YMC17/03/R585): R
- antibiotic susceptibility value (host strain YMC17/03/R585): 128
- antibiotic susceptibility S/I/R (host strain YMC17/03/R1888): R
- antibiotic susceptibility value (host strain YMC17/03/R1888): 128
- antibiotic susceptibility S/I/R (host strain YMC17/03/R3279): R
- antibiotic susceptibility value (host strain YMC17/03/R3279): 128
- antibiotic susceptibility S/I/R (host strain YMC17/03/R4077): R
- antibiotic susceptibility value (host strain YMC17/03/R4077): 128
- antibiotic susceptibility S/I/R (host strain YMC17/03/R4607): R
- antibiotic susceptibility value (host strain YMC17/03/R4607): 128
- antibiotic susceptibility S/I/R (host strain YMC17/04/R488): R
- antibiotic susceptibility value (host strain YMC17/04/R488): 128
- antibiotic susceptibility S/I/R (host strain YMC17/04/R640): R
- antibiotic susceptibility value (host strain YMC17/04/R640): 128
- antibiotic susceptibility S/I/R (host strain YMC/17/05/R1095): R
- antibiotic susceptibility value (host strain YMC/17/05/R1095): 128
